Tests used:
[1] = Tolerance in the A375 xenograft study (body weight, clinical observations); format: in vivo; conditions: hydrochloride salt, 20 mg/kg intravenously QD, 15 days
Description: FIG. 5: Average body weight measurement ±SEM (grams) of animals in Control (Carbonate vehicle) and compound 4015 (20 mg/kg, I.V., QD) treated animals.
In vivo efficacy studies for compound 4015 hydrochloride salt were conducted using an A375 melanoma xenograft model in Foxn-1 nu/nu athymic mice. The human melanoma cell line A375 (sourced from American Type Culture Collection (ATCC), USA) was used for developing the flank xenograft model. Briefly, five million cells were injected subcutaneously in the right flank region of the animal. When the tumors reached 130-150 mm^3 the animals were randomized into two groups, each group with 8 animals in them, so that the average tumor volume of all the groups was same.
First group received vehicle (sodium bicarbonate buffer) intravenously once a day (QD). The second group received compound 4015 at 20 mg/kg, intravenously (QD) (Table 7). The volume of dosing to each animal was calculated and adjusted every day based on individual body weight measured prior to dosing.
Animals were treated from the day of randomization (Day 1) for 15 days. Body weight and tumor dimensions (length and diameter) were measured three times in a week including the termination day of the study. Throughout the study period, mice were monitored daily for clinical condition.

[2] = system: ovarian cancer (SKOV3) cells; test: Cell viability, CellTiter 96 AQueous, 72 hours; format: cell-based; conditions: Homo sapiens, SK-OV-3
Description: The anti-proliferative activity of compound 4093 against ovarian cancer (SKOV3) and glioblastoma (U251) cells was also evaluated (Table 6). Briefly, cells were seeded at 2000 cells/well in a 96 well plate. 24 hrs post plating, each cell line was exposed to various concentrations of ATM-4093 (10, 5, 3,1, 0.7, 0.5, 0.3, 0.1 μM) for 72 hours. Cell viability was determined using CellTiter 96 AQueous (Promega) and absorbance measured at 490 nm on the SpectraMax M2 plate reader. Cell viability was normalized to control (vehicle alone) and dose-response curves, and half maximal effective concentration (EC50) values were determined using Graph Pad Prism 6 (nonlinear regression sigmoidal dose-response variable slope).

| IC50 [2] [µM] | Compound | Tolerability (body weight and clinical observations) [1] |
| --- | --- | --- |
| – | Cc1c(C)n(CCCN(C)C)c2ccc(CN3CCN(CCc4ccccc4)CC3)cc12 [Compound 4015, 3-(2,3-dimethyl-5-((4-phenethylpiperazin-1-yl)methyl)-1H-indol-1-yl)-N,N-dimethylpropan-1-amine] | well tolerated |
| 0.6 | Cc1c(C)n(CCCN(C)C)c2ccc(Oc3ccc(C(=O)Nc4ccc(F)cc4)cc3)cc12 [Compound 4093, 4-((1-(3-(dimethylamino)propyl)-2,3-dimethyl-1H-indol-5-yl)oxy)-N-(4-fluorophenyl)benzamide] | – |
